Source: US11590147B2, “17-hydroxyprogesterone ester-containing oral compositions and related methods” (Lipocine Inc., priority 2015, dated 2023)
Where two headings read alike, the source gives them in different places.

Legend:
[1] = Phase 1b open-label pharmacokinetic study in healthy pregnant women (single dose data and simulated steady state); assay type: in vivo, human (pregnant women); details: for Cmax / AUC(0-t): female, human, in vivo, N = 7; for Cmax / AUC(0-t) / AUCSS / Css, max: pregnant women; for AUC(0-t): read-out: AUC0-24; for AUCSS / Css, max: simulated steady state; for AUCSS: 1 week duration
Method: Formulations (e.g., oral dosage forms like those described herein) were used in a Phase 1b open-label study that enrolled eight healthy; pregnant women at 16 to 18 weeks gestation. All subjects received three treatments in sequence. In period one, subjects received two doses of 400 mg with oral dosage forms like those described herein, administered 12 hours apart. In period two, subjects received two doses of 800 mg oral with dosage forms like those described herein, administered 12 hours apart. In period three, subjects were given 250 mg of HPC via intramuscular injection (marketed product Makena®). Blood samples were collected periodically over 24 hours following oral dosing and over 28 days following the IM dose.
Steady state pharmacokinetic parameters for oral and IM dosing regimens were simulated based on single dose data and the Cmax and […] values are shown in the table below.

[2] = cited from earlier work
[3] = Saxton et al. 2004; Greene NEJM; cited from earlier work
[4] = oral 400 mg BID (two doses 12 hours apart)
[5] = oral 800 mg BID (two doses 12 hours apart)

CCCCCC(=O)O[C@]1(C(C)=O)CC[C@H]2[C@@H]3CCC4=CC(=O)CC[C@]4(C)[C@H]3CC[C@@]21C [Example 17HPC, 17-hydroxyprogesterone caproate]
increase in exposure with dose ([1]; 800 mg dose vs 400 mg dose, oral): more than dose proportional increase in exposure
Cmax [1, 4]: 21.3 ng/mL
AUC(0-t) [1, 4]: 156 ng·h/mL
Cmax [1, 5]: 63.2 ng/mL
AUC(0-t) [1, 5]: 577 ng·h/mL
absorption following oral administration ([1]; healthy pregnant women): significant HPC absorption
AUCSS ([1]; oral 400 mg BID): 1074 ng·h/mL
AUCSS ([1]; oral 800 mg BID): 4058 ng·h/mL
Css, max ([1]; oral 400 mg BID): 21.6 ng/mL
Css, max ([1]; oral 800 mg BID): 71.1 ng/mL
solubility in water [2]: < 0.02 µg/mL
oral activity [3]: no oral activity
